Source: publication PMC10424186 (Journal of Medicinal Chemistry, 2023)
“Also recorded” adds a separate entry of the source. Like-named read-outs stand apart in the source and are kept apart here.

Tests used:
KDM4E [1] = molecular target: T1, KDM4E (Homo sapiens, UniProt B2RXH2); conditions: cited from earlier work
T1 construct: made in house; host or cells: Escherichia coli
T1 sequence (B2RXH2 1-506): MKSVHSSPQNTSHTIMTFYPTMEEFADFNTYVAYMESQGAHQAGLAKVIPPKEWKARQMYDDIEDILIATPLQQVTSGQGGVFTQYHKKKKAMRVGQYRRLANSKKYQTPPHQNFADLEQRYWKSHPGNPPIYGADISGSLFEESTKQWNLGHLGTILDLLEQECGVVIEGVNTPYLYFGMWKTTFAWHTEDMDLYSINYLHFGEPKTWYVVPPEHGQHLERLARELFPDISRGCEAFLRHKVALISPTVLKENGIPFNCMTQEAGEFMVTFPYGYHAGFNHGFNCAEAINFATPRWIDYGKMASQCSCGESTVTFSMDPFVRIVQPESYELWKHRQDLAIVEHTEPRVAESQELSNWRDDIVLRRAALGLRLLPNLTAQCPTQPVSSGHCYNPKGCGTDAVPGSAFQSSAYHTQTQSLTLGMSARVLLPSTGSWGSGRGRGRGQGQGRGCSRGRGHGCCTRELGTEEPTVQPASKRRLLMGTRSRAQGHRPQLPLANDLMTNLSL

AspH [2] = molecular target: T2, AspH (Homo sapiens, UniProt Q12797); conditions: cited from earlier work; for IC50 AspH: Supporting Table S1, reported SPE-MS value, ref SI 18
T2 construct: N-terminally His6-tagged AspH315–758; made in house; host or cells: Escherichia coli
T2 sequence (Q12797 315-758): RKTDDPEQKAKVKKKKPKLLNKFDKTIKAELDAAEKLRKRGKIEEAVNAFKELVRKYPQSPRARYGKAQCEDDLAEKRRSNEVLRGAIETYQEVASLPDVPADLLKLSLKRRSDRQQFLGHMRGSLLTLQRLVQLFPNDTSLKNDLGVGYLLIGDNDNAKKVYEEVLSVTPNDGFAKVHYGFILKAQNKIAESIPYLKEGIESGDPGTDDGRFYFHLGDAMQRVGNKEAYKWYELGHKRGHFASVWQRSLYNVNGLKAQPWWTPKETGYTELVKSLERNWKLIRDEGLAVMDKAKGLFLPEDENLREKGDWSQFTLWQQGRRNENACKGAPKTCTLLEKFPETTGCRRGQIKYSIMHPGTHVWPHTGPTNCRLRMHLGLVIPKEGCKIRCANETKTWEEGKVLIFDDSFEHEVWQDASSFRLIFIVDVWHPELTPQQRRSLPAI

human JMJD5 = human JMJD5 (Homo sapiens, UniProt Q8N371); experiment: SPE-MS JMJD5 inhibition assay (hydroxylation of RPS6 128–148 peptide); type: biochemical
Text: Synthetic peptides with sequences based on reported human 2OG oxygenase substrates were used in SPE-MS inhibition assays: RPS6, residues 128–148, for JMJD5;[42] HIF-α CODD, residues 558–574, for PHD2;[70] HIF-α CAD, residues 788–822, for FIH;[70] H3_1-15K9me3, histone 3 (H3), residues 1–15 with K9 of H3-bearing three methyl groups at the N^ε-position, K4 of H3 substituted by an alanine residue, and K14 of H3 by an isoleucine residue,[73] for KDM4E; and RPL27A, residues 31–49, for RIOX2 (Mina53).[44] All peptides were prepared as C-terminal amides by GL Biochem (Shanghai) Ltd. A synthetic thioether-linked cyclic peptide, hFX-CP101–119,[48] which was designed based on the reported cellular AspH substrate human coagulation factor X (hFX, residues 101–119; C101 was substituted for a D-alanine residue and C112 for a serine residue),[79] was used as AspH substrate; it was prepared with a C-terminal amide according to literature protocols.[80]
Cosubstrate/cofactor stock solutions [L-ascorbic acid/LAA: 50 mM in MQ-grade water; 2-oxoglutarate/2OG: 10 mM in MQ-grade water; ammonium iron(II) sulfate hexahydrate/FAS/(NH4)2Fe(SO4)2·6H2O: 400 mM in 20 mM HCl diluted to 1 mM in MQ-grade water] were freshly prepared from commercial solids (Sigma-Aldrich) on the day the assays were performed. The JMJD5,[42] PHD2,[70] FIH,[70] KDM4E,[72],[73] RIOX2,[44] and AspH[45] SPE-MS inhibition assays were performed as described in the cited literature, using isolated recombinant human enzymes (His6-thioredoxin-JMJD5,[42] His6-PHD2_181–426,[70] His6-FIH,[70] His6-KDM4E,[72],[73] His6-RIOX2_26–465,[87],[88] and His6-AspH315–758[48],[80]) and synthetic peptide substrates (RPS6_128–148 for JMJD5;[42] HIF-α CODD558–574 for PHD2;[70] HIF-α CAD788–822 for FIH;[70] H3_1–15K9me3 for KDM4E;[73] RPL27A31–49 for RIOX2;[44],[71] and hFX-CP101–119 for AspH;[45],[48] see above). For JMJD5, PHD2, FIH, RIOX2, and AspH, substrate hydroxylation was monitored (+16 Da mass shift), while for the KDM4E substrate, demethylation was monitored (−14 Da mass shift) by SPE-MS.

RIOX2 = molecular target: T3, RIOX2 (Homo sapiens, UniProt Q8IUF8); experiment: SPE-MS RIOX2 inhibition assay (RPL27A31–49 hydroxylation); type: biochemical; conditions: Table 2; His6-RIOX2 26–465 […], 5.0 μM RPL27A31–49; n = 2, mean ± SD
T3 construct: N-terminally His6-tagged RIOX2_26–465; made in house; host or cells: Escherichia coli
Procedure: Cosubstrate/cofactor stock solutions [L-ascorbic acid/LAA: 50 mM in MQ-grade water; 2-oxoglutarate/2OG: 10 mM in MQ-grade water; ammonium iron(II) sulfate hexahydrate/FAS/(NH4)2Fe(SO4)2·6H2O: 400 mM in 20 mM HCl diluted to 1 mM in MQ-grade water] were freshly prepared from commercial solids (Sigma-Aldrich) on the day the assays were performed. […] For JMJD5, PHD2, FIH, RIOX2, and AspH, substrate hydroxylation was monitored (+16 Da mass shift), while for the KDM4E substrate, demethylation was monitored (−14 Da mass shift) by SPE-MS.

KDM4E [3] = molecular target: T1, KDM4E; experiment: SPE-MS KDM4E inhibition assay (demethylation of H3 1–15 K9me3); type: biochemical; conditions: Table 2, 10.0 μM H3 1–15 K9me3, n = 2, mean ± SD
Procedure: (§1) H3_1-15K9me3, histone 3 (H3), residues 1–15 with K9 of H3-bearing three methyl groups at the N^ε-position, K4 of H3 substituted by an alanine residue, and K14 of H3 by an isoleucine residue,[73] for KDM4E; and RPL27A, residues 31–49, for RIOX2 (Mina53).[44]
(§2) Cosubstrate/cofactor stock solutions [L-ascorbic acid/LAA: 50 mM in MQ-grade water; 2-oxoglutarate/2OG: 10 mM in MQ-grade water; ammonium iron(II) sulfate hexahydrate/FAS/(NH4)2Fe(SO4)2·6H2O: 400 mM in 20 mM HCl diluted to 1 mM in MQ-grade water] were freshly prepared from commercial solids (Sigma-Aldrich) on the day the assays were performed. The JMJD5,[42] PHD2,[70] FIH,[70] KDM4E,[72],[73] RIOX2,[44] and AspH[45] […] For JMJD5, PHD2, FIH, RIOX2, and AspH, substrate hydroxylation was monitored (+16 Da mass shift), while for the KDM4E substrate, demethylation was monitored (−14 Da mass shift) by SPE-MS.

PHD2 = molecular target: T4, PHD2 (Homo sapiens, UniProt Q9GZT9); experiment: SPE-MS PHD2 inhibition assay (HIF-1α CODD hydroxylation); type: biochemical; conditions: Table 2; PHD2 181–426 […], 5.0 μM HIF-1α CODD; n = 2, mean ± SD
T4 construct: His6-PHD2_181–426; made in house; host or cells: Escherichia coli
Procedure: as §1, §2

AspH [4] = molecular target: T2, AspH; experiment: SPE-MS AspH inhibition assay (hFX-CP101–119 hydroxylation); type: biochemical; conditions: Table 2; His6-AspH315–758 0.05 μM, 1.0 μM hFX-CP101–119; n = 2, mean ± SD
Procedure: as §1, §2

KDM4E [5] = molecular target: T1, KDM4E; conditions: Supporting Table S1; reported FDH-coupled spectrophotometric assay; ref SI 17; cited from earlier work
[6] = Table 1, JMJD5 […], 2OG 2.0 μM, Fe(II) 2.0 μM, LAA 100 μM, RPS6 128–148 2.0 μM, pH 7.5, 20 °C, n = 3, mean ± SD, read-out: IC50 JMJD5
[7] = isolated recombinant JMJD5, SPE-MS
[8] = isolated recombinant JMJD5, SPE-MS, approximate values, read-out: IC50 for JMJD5 inhibition
[9] = Table 2, JMJD5 […], 2OG 2.0 μM, Fe(II) 2.0 μM, LAA 100 μM, RPS6 128–148 2.0 μM, n = 3, mean ± SD, read-out: IC50 JMJD5
[10] = Supporting Table S1, JMJD5 […], 2OG 2.0 μM, RPS6 128-148 2.0 μM, pH 7.5, 20 °C, n = 3, mean ± SD, read-out: IC50 JMJD5
[11] = supplementary CSV, read-out: IC50 JMJD5

human JMJD5, sequence (Q8N371 whole entry, the tested form may be a part): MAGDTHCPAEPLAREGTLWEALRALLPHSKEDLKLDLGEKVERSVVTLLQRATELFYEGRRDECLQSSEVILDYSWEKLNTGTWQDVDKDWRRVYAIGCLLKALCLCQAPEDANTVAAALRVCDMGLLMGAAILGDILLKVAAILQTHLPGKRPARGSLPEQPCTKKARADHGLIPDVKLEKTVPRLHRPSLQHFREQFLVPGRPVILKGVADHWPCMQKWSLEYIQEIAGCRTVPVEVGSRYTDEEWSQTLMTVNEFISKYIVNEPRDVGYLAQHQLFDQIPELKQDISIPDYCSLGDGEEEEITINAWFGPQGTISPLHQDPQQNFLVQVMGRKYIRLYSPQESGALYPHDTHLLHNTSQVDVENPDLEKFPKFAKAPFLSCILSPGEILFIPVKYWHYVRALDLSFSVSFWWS
T4 sequence (Q9GZT9 181-426): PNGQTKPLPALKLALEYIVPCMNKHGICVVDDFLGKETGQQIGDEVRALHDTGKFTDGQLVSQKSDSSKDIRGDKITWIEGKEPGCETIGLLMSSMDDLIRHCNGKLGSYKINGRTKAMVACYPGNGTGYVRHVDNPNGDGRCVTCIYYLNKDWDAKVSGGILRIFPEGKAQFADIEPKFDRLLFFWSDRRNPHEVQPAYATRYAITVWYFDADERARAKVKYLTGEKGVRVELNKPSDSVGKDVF
T3 sequence (Q8IUF8 26-465): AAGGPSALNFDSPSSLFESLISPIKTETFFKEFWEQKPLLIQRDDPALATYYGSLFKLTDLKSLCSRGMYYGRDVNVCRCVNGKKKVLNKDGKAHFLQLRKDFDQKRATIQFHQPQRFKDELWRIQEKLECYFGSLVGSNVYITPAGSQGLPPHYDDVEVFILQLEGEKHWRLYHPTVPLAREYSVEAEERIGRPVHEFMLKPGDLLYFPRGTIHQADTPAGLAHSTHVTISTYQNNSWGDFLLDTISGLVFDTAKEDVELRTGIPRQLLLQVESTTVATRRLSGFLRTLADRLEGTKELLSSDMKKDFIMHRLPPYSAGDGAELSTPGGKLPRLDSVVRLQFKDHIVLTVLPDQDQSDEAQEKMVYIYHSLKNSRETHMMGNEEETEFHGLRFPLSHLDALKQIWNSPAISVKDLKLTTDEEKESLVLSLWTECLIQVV

In the case of `O=C(O)c1ccnc(C(=O)O)c1C(F)(F)F` [Compound 14, 3-trifluoromethyl-2,4-PDCA], the “KDM4E inhibition (in words)” value (KDM4E [1]) is given as “not to inhibit KDM4E”, the “AspH inhibition (in words)” value (AspH [2]; isolated recombinant AspH) is given as “does not inhibit” and the IC50 (human JMJD5; [6]) is given as over 50 µM. For the same molecule, the “JMJD5 inhibition (in words)” value (human JMJD5; [7]) was “did not efficiently inhibit JMJD5” and the IC50 (human JMJD5; [8]) was over 50 µM.

In the case of `O=C(O)c1cc(C(=O)O)c(C(F)(F)F)cn1` [Compound 16, 5-trifluoromethyl-2,4-PDCA], the “KDM4E inhibition (in words)” value (KDM4E [1]) is listed as “not to inhibit KDM4E”, the IC50 (human JMJD5; [6]) is listed as over 50 µM and the “JMJD5 inhibition (in words)” value (human JMJD5; [7]) is listed as “did not efficiently inhibit JMJD5; also recorded: does not inhibit JMJD5”. For the same molecule, the IC50 (human JMJD5; [8]) was over 50 µM.

`O=C(O)c1cc(C(=O)O)c(NCCc2ccccc2)cn1` [Compound 20b] gave an IC50 (RIOX2) of 27.9 ± 6.7 µM, an IC50 (KDM4E [3]) of 5.9 ± 0.6 µM and an IC50 (human JMJD5; [9]) of 0.9 ± 0.2 µM. It also gave an IC50 (PHD2) of over 50 µM and an IC50 (AspH [4]) of 1800 ± 100 nM.

Work on `O=C(O)c1cc(C(=O)O)c(NCCCc2ccccc2)cn1` [Compound 20c] yielded an IC50 (RIOX2) of 27.3 ± 6.7 µM, an IC50 (KDM4E [3]) of 28.2 ± 4.1 µM and an IC50 (human JMJD5; [9]) of 0.3 ± 0.1 µM. It also gave an IC50 (PHD2) of over 50 µM and an IC50 (AspH [4]) of 2800 ± 400 nM.

Molecule `COc1ccc(CNc2cnc(C(=O)O)cc2C(=O)O)cc1` [Compound 20h, 5-((4-methoxybenzyl)amino)pyridine-2,4-dicarboxylic acid] has an IC50 (RIOX2) of 27.6 ± 7.1 µM, an IC50 (KDM4E [3]) of 15.5 ± 1.9 µM and an IC50 (PHD2) of over 50 µM. The IC50 (AspH [4]) was 2000 ± 400 nM.

Molecule `COc1ccccc1CNc1cnc(C(=O)O)cc1C(=O)O` [Compound 20i, 5-((2-methoxybenzyl)amino)pyridine-2,4-dicarboxylic acid] has an IC50 (RIOX2) of over 50 µM, an IC50 (KDM4E [3]) of 11.3 ± 2.9 µM and an IC50 (PHD2) of over 50 µM. It also gave an IC50 (AspH [4]) of 900 ± 200 nM.

For `O=C(O)c1ccc(Nc2c(C(=O)O)ccnc2C(=O)O)cc1` [Compound 22], the IC50 (KDM4E [5]) is given as 66 µM, the “IC50 AspH” value (AspH [2]) is given as “inactive” and the IC50 (human JMJD5; [10]) is given as over 50 µM. The IC50 (human JMJD5; [11]) was over 50 µM.

In the case of `O=C(O)c1ccnc(C(=O)O)c1Nc1ccc([N+](=O)[O-])cc1` [Compound 23], the IC50 (KDM4E [5]) is listed as 95 µM, the “IC50 AspH” value (AspH [2]) is listed as “inactive” and the IC50 (human JMJD5; [10]) is listed as over 50 µM. For the same molecule, the IC50 (human JMJD5; [11]) was over 50 µM.
